Molecular target: T1, GCS (Canis lupus familiaris, UniProt A0A8I3MXG6)
T1 sequence (A0A8I3MXG6 1-394): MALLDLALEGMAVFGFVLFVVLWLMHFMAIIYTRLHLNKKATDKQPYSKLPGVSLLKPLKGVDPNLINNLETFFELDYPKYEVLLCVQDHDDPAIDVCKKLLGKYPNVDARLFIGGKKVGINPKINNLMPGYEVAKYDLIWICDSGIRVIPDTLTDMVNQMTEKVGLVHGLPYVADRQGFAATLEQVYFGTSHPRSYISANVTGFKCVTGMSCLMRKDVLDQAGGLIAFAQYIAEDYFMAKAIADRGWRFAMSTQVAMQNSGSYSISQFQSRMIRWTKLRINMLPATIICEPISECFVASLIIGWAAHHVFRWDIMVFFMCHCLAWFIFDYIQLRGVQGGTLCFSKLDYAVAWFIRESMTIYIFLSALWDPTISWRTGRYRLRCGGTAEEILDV
Test: Assay 1: GCS Enzymatic Assay (MDCK cell lysate, C6-NBD-Ceramide, LC/MS)
Assay type: biochemical, canine
Settings: Table 1, MDCK cell lysate; for IC50: read-out: IC50 (nM) generated from Assay 1; for % inhibition generated from Assay 1: values marked *
Protocol: This assay was modified based on the study by Larsen et al. (J. Lipid Res. 2011, 53, 282). Madin-Darby canine kidney (MDCK) cell lysate was prepared using M-PER Mammalian Protein Extraction Reagent (Thermal Scientific) in the presence of a protease inhibitor cocktail (Roche). Protein concentration was determined using BCA assay kit (Pierce). Sixty micrograms of MDCK cell lysate was incubated with various concentrations of a compound described herein from 0.001 μM-10 μM, respectively, in 100 mM Tris buffer (pH 7.5) containing 10 mM MgCl2, 1 mM dithiothreitol, 1 mM EGTA, 2 mM NAD, 100 μM UDP-glucose, 10 μM C6-NBD-Ceramide (Matreya LLC, Pleasant Gap, Pa.), 35 μM dioleoylphosphatidylcholine and 5 μM sulfatide (Sigma) in a final reaction volume of 100 μL at 37° C. for 1 hour. 0.1% DMSO was used as mock treatment or control. The reaction was terminated by adding 100 μL acetonitrile solution and subjected to LC/MS analysis.
The quantitative analysis of NBD-Ceramide and glucosylceramide was performed on a Shimadzu ultra-fast liquid chromatography (Shimadzu, Japan) coupled with API 4000 triple quadrupole mass spectrometer (Applied Biosystems, Concord, Ontario, Canada). Sample separation was conducted on a Waters Xbridge™ BEH130 C18, 100 mm×4.6 mm i.d, 3.5 μm (Milford, Mass., USA). The mobile phase consisted of water and acetonitrile supplemented with 0.1% formic acid (v/v). The flow rate was 1.0 mL/min. The initial mobile phase was 20% acetonitrile and was ramped in a linear fashion to 50% acetonitrile in 0.4 min. From 0.4 to 1.5 min, the gradient was ramped to 98% acetonitrile, and then was held at […] until 8.0 min. Acetonitrile was reset to 20% in 1.5 min, and maintained until 10.0 min. The total run time was 10.0 min. The MS/MS detection was performed in ESI positive mode. The mass transition of NBD-Ceramide was m/z 576.36→558.40 under the collision energy of 15 V, and the mass transition of glucosylceramide was m/z 738.35→558.40 under 21V collision energy. The cell lysate was diluted with equal volume of acetonitrile. Aliquots of 50 μL diluted samples were added to 1.5 mL tubes, and 100 μL of acetonitrile containing internal standard (100 ng/mL tolbutamide) were added for protein precipitation. The mixture were vortexed and then centrifuged at 13000 rpm for 10 min. 70 μL of supernatant were mixed with 140 μL of H2O and the final solution were injected for LC/MS/MS analysis and IC50's and/or percent inhibitions calculated.

| IC50 | SMILES | % inhibition generated from Assay 1 |
| --- | --- | --- |
| < 50 nM | O=C(N[C@H](CN1CCCC1)[C@H](O)c1ccc2c(c1)OCCO2)C(F)(F)c1cc2cc(Br)ccc2o1 [Compound 31, 2-(5-bromobenzofuran-2-yl)-N-((1R,2R)-1-(2,3-dihydrobenzo[b][1,4]dioxin-6-yl)-1-hydroxy-3-(pyrrolidin-1-yl)propan-2-yl)-2,2-difluoroacetamide] |  |
|  | O=C(N[C@H](CN1CCC1)[C@@H](O)c1ccc2c(c1)OCCO2)C(F)(F)c1cc2cc(Cl)ccc2o1 [Compound 32C, N-((1S,2R)-3-(azetidin-1-yl)-1-(2,3-dihydrobenzo[b][1,4]dioxin-6-yl)-1-hydroxypropan-2-yl)-2-(5-chlorobenzofuran-2-yl)-2,2-difluoroacetamide] | B* (the compound had a % inhibition of greater than or equal to about 3% but less than about 50%) |
| < 50 nM | O=C(N[C@H](CN1CCC1)[C@H](O)c1ccc2c(c1)OCCO2)C(F)(F)c1cc2cc(Cl)ccc2o1 [Compound 32D, N-((1R,2R)-3-(azetidin-1-yl)-1-(2,3-dihydrobenzo[b][1,4]dioxin-6-yl)-1-hydroxypropan-2-yl)-2-(5-chlorobenzofuran-2-yl)-2,2-difluoroacetamide] |  |
|  | O=C(N[C@H](CN1CCCC1)[C@H](O)c1cc2c(cc1F)OCCO2)C(F)(F)c1cc2cc(Cl)ccc2o1 [Compound 33, 2-(5-chlorobenzofuran-2-yl)-2,2-difluoro-N-((1R,2R)-1-(7-fluoro-2,3-dihydrobenzo[b][1,4]dioxin-6-yl)-1-hydroxy-3-(pyrrolidin-1-yl)propan-2-yl)acetamide] | B* (the compound had a % inhibition of greater than or equal to about 3% but less than about 50%) |
|  | O=C(N[C@H](CN1CCCC1)[C@@H](O)c1cc2c(cc1F)OCCO2)C(F)(F)c1cc2cc(Cl)ccc2o1 [Compound 33A, 2-(5-chlorobenzofuran-2-yl)-2,2-difluoro-N-((1S,2R)-1-(7-fluoro-2,3-dihydrobenzo[b][1,4]dioxin-6-yl)-1-hydroxy-3-(pyrrolidin-1-yl)propan-2-yl)acetamide] | B* (the compound had a % inhibition of greater than or equal to about 3% but less than about 50%) |
|  | O=C(N[C@H](CN1CCCC1)[C@H](O)c1ccc2ncccc2c1)C(F)(F)c1cc2cc(Cl)ccc2o1 [Compound 34, 2-(5-chlorobenzofuran-2-yl)-2,2-difluoro-N-((1R,2R)-1-hydroxy-3-(pyrrolidin-1-yl)-1-(quinolin-6-yl)propan-2-yl)acetamide] | A* (the compound had a % inhibition of a percent inhibition of greater than or equal to about 50%) |
|  | O=C(N[C@H](CN1CCCC1)[C@@H](O)c1ccc2ncccc2c1)C(F)(F)c1cc2cc(Cl)ccc2o1 [Compound 34G, 2-(5-chlorobenzofuran-2-yl)-2,2-difluoro-N-((1S,2R)-1-hydroxy-3-(pyrrolidin-1-yl)-1-(quinolin-6-yl)propan-2-yl)acetamide] | B* (the compound had a % inhibition of greater than or equal to about 3% but less than about 50%) |
|  | CC1(C)CCN(C[C@@H](NC(=O)C(F)(F)c2cc3cc(Cl)ccc3o2)[C@@H](O)c2ccc3c(c2)OCCO3)C1 [Compound 36C, 2-(5-chlorobenzofuran-2-yl)-N-((1S,2R)-1-(2,3-dihydrobenzo[b][1,4]dioxin-6-yl)-3-(3,3-dimethylpyrrolidin-1-yl)-1-hydroxypropan-2-yl)-2,2-difluoroacetamide] | B* (the compound had a % inhibition of greater than or equal to about 3% but less than about 50%) |
|  | O=C(N[C@H](CN1CCCC1)[C@H](O)c1ccc(OC(F)(F)F)cc1)C(F)(F)c1cc2cc(Cl)ccc2o1 [Compound 37, 2-(5-chlorobenzofuran-2-yl)-2,2-difluoro-N-((1R,2R)-1-hydroxy-3-(pyrrolidin-1-yl)-1-(4-(trifluoromethoxy)phenyl)propan-2-yl)acetamide] | B* (the compound had a % inhibition of greater than or equal to about 3% but less than about 50%) |
|  | O=C(N[C@H](CN1CCCC1)[C@@H](O)c1ccc(OC(F)(F)F)cc1)C(F)(F)c1cc2cc(Cl)ccc2o1 [Compound 37G, 2-(5-chlorobenzofuran-2-yl)-2,2-difluoro-N-((1S,2R)-1-hydroxy-3-(pyrrolidin-1-yl)-1-(4-(trifluoromethoxy)phenyl)propan-2-yl)acetamide] | B* (the compound had a % inhibition of greater than or equal to about 3% but less than about 50%) |
|  | O=C(N[C@H](CN1CC[C@H](F)C1)[C@H](O)c1ccc2c(c1)OCCO2)C(F)(F)c1cc2cc(Cl)ccc2o1 [Compound 38, 2-(5-chlorobenzofuran-2-yl)-N-((1R,2R)-1-(2,3-dihydrobenzo[b][1,4]dioxin-6-yl)-3-((S)-3-fluoropyrrolidin-1-yl)-1-hydroxypropan-2-yl)-2,2-difluoroacetamide] | B* (the compound had a % inhibition of greater than or equal to about 3% but less than about 50%) |
| < 50 nM | C[C@@H]1CCCN1C[C@@H](NC(=O)C(F)(F)c1cc2cc(Cl)ccc2o1)[C@H](O)c1ccc2c(c1)OCCO2 [Compound 39, 2-(5-chlorobenzofuran-2-yl)-N-((1R,2R)-1-(2,3-dihydrobenzo[b][1,4]dioxin-6-yl)-1-hydroxy-3-((1R)-2-methylpyrrolidin-1-yl)propan-2-yl)-2,2-difluoroacetamide] |  |
| < 50 nM | C[C@H]1CCCN1C[C@@H](NC(=O)C(F)(F)c1cc2cc(Cl)ccc2o1)[C@H](O)c1ccc2c(c1)OCCO2 [Compound 40, 2-(5-chlorobenzofuran-2-yl)-N-((1R,2R)-1-(2,3-dihydrobenzo[b][1,4]dioxin-6-yl)-1-hydroxy-3-((S)-2-methylpyrrolidin-1-yl)propan-2-yl)-2,2-difluoroacetamide] |  |
|  | O=C(N[C@H](CN1CCC(F)(F)C1)[C@H](O)c1ccc2c(c1)OCCO2)C(F)(F)c1cc2cc(Cl)ccc2o1 [Compound 41, 2-(5-chlorobenzofuran-2-yl)-N-((1R,2R)-3-(3,3-difluoropyrrolidin-1-yl)-1-(2,3-dihydrobenzo[b][1,4]dioxin-6-yl)-1-hydroxypropan-2-yl)-2,2-difluoroacetamide] | B* (the compound had a % inhibition of greater than or equal to about 3% but less than about 50%) |
| < 50 nM | O=C(N[C@H](CN1CCCC1)[C@H](O)c1ccc(OC2CC2)c(Cl)c1)C(F)(F)c1cc2cc(Cl)ccc2o1 [Compound 44, N-((1R,2R)-1-(3-chloro-4-cyclopropoxyphenyl)-1-hydroxy-3-(pyrrolidin-1-yl)propan-2-yl)-2-(5-chlorobenzofuran-2-yl)-2,2-difluoroacetamide] |  |
|  | O=C(N[C@H](CN1CCCC1)[C@@H](O)c1ccc(OC2CC2)c(Cl)c1)C(F)(F)c1cc2cc(Cl)ccc2o1 [Compound 44H, N-((1S,2R)-1-(3-chloro-4-cyclopropoxyphenyl)-1-hydroxy-3-(pyrrolidin-1-yl)propan-2-yl)-2-(5-chlorobenzofuran-2-yl)-2,2-difluoroacetamide] | B* (the compound had a % inhibition of greater than or equal to about 3% but less than about 50%) |
| 50 to 5000 nM | O=C(N[C@H](CN1CC[C@@H](F)C1)[C@H](O)c1ccc2c(c1)OCCO2)C(F)(F)c1cc2cc(Cl)ccc2o1 [Compound 46, 2-(5-chlorobenzofuran-2-yl)-N-((1R,2R)-1-(2,3-dihydrobenzo[b][1,4]dioxin-6-yl)-3-((1R)-3-fluoropyrrolidin-1-yl)-1-hydroxypropan-2-yl)-2,2-difluoroacetamide] |  |
